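Test compounds were applied to cells in 96-well plates for 48 hours at 5 doses. Definition used: TGI = concentration required for complete inhibition of growth.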
Tested on: SR leukemia
Assay: DTP human tumour cell line panel, 48 h

`O=S1(=O)OCCOS(=O)(=O)C1(Br)Cc1ccccc1` and `CC1CCC2(OCCO2)[C@]2(C)CC(O)C(=O)C=C12` (stereo partly specified) cannot be ordered by TGI: greater than 100 µM for the first, greater than 100 µM for the second.

First: C=CCSc1ncnc2c1ncn2C1OC(CO)C(O)C1O (stereo unspecified)
Second: CCCCCCCCCCCCCC(=O)OC1C(O)C(CO)OC(OC)C1NC(=O)N(CCCl)N=O (stereo unspecified)
The TGI of the first is higher: greater than 100 µM for the first, 93.4 µM for the second.

Tested on: ACHN renal
Assay: DTP human tumour cell line panel, 48 h

`COC(=O)/C(=N\NC(=O)c1ccccc1O)C(C#N)c1ccccc1` (stereo unspecified) and `O=S1(=O)OCCOS(=O)(=O)C1(Br)Cc1ccccc1` cannot be ordered by TGI: greater than 50 µM for the first, greater than 100 µM for the second.

`C=CCSc1ncnc2c1ncn2C1OC(CO)C(O)C1O` (stereo unspecified) and `CCCCCCCCCCCCCC(=O)OC1C(O)C(CO)OC(OC)C1NC(=O)N(CCCl)N=O` (stereo unspecified) cannot be ordered by TGI: greater than 100 µM for the first, greater than 100 µM for the second.

Compound `CC1CCC2(OCCO2)[C@]2(C)CC(O)C(=O)C=C12` (stereo partly specified) has a TGI greater than 100 µM.

Tested on: LXFL 529 NSCLC
Assay: DTP human tumour cell line panel, 48 h

`COC(=O)/C(=N\NC(=O)c1ccccc1O)C(C#N)c1ccccc1` (stereo unspecified) and `O=S1(=O)OCCOS(=O)(=O)C1(Br)Cc1ccccc1` cannot be ordered by TGI: greater than 50 µM for the first, greater than 100 µM for the second.

`CC1CCC2(OCCO2)[C@]2(C)CC(O)C(=O)C=C12` (stereo partly specified) and `CCCCCCCCCCCCCC(=O)OC1C(O)C(CO)OC(OC)C1NC(=O)N(CCCl)N=O` (stereo unspecified) cannot be ordered by TGI: greater than 100 µM for the first, greater than 100 µM for the second.

Tested on: OVCAR-4 ovarian
Assay: DTP human tumour cell line panel, 48 h

`COC(=O)/C(=N\NC(=O)c1ccccc1O)C(C#N)c1ccccc1` (stereo unspecified) and `O=S1(=O)OCCOS(=O)(=O)C1(Br)Cc1ccccc1` cannot be ordered by TGI: greater than 50 µM for the first, greater than 100 µM for the second.

`C=CCSc1ncnc2c1ncn2C1OC(CO)C(O)C1O` (stereo unspecified) and `CCCCCCCCCCCCCC(=O)OC1C(O)C(CO)OC(OC)C1NC(=O)N(CCCl)N=O` (stereo unspecified) cannot be ordered by TGI: greater than 100 µM for the first, greater than 100 µM for the second.

Tested on: SF-539 CNS
Assay: DTP human tumour cell line panel, 48 h

`COC(=O)/C(=N\NC(=O)c1ccccc1O)C(C#N)c1ccccc1` (stereo unspecified) and `O=S1(=O)OCCOS(=O)(=O)C1(Br)Cc1ccccc1` cannot be ordered by TGI: greater than 43.3 µM for the first, greater than 100 µM for the second.

Going from `C=CCSc1ncnc2c1ncn2C1OC(CO)C(O)C1O` (stereo unspecified) to `CCCCCCCCCCCCCC(=O)OC1C(O)C(CO)OC(OC)C1NC(=O)N(CCCl)N=O` (stereo unspecified), the TGI falls from greater than 100 µM to 63.5 µM.

`CC1CCC2(OCCO2)[C@]2(C)CC(O)C(=O)C=C12` (stereo partly specified) showed a TGI greater than 100 µM.

Tested on: NCI-H226 lung
Assay: DTP human tumour cell line panel, 48 h

Going from `COC(=O)/C(=N\NC(=O)c1ccccc1O)C(C#N)c1ccccc1` (stereo unspecified) to `O=S1(=O)OCCOS(=O)(=O)C1(Br)Cc1ccccc1`, the TGI rises from 46.1 µM to greater than 100 µM.

`C=CCSc1ncnc2c1ncn2C1OC(CO)C(O)C1O` (stereo unspecified) and `CCCCCCCCCCCCCC(=O)OC1C(O)C(CO)OC(OC)C1NC(=O)N(CCCl)N=O` (stereo unspecified) cannot be ordered by TGI: greater than 100 µM for the first, greater than 100 µM for the second.

Work on `CC1CCC2(OCCO2)[C@]2(C)CC(O)C(=O)C=C12` (stereo partly specified) yielded a TGI greater than 100 µM.

Tested on: HT29 colon
Assay: DTP human tumour cell line panel, 48 h

`COC(=O)/C(=N\NC(=O)c1ccccc1O)C(C#N)c1ccccc1` (stereo unspecified) and `O=S1(=O)OCCOS(=O)(=O)C1(Br)Cc1ccccc1` cannot be ordered by TGI: greater than 50 µM for the first, greater than 100 µM for the second.

`C=CCSc1ncnc2c1ncn2C1OC(CO)C(O)C1O` (stereo unspecified) and `CCCCCCCCCCCCCC(=O)OC1C(O)C(CO)OC(OC)C1NC(=O)N(CCCl)N=O` (stereo unspecified) cannot be ordered by TGI: greater than 100 µM for the first, greater than 100 µM for the second.

`CC1CCC2(OCCO2)[C@]2(C)CC(O)C(=O)C=C12` (stereo partly specified) was tested, and the TGI was greater than 100 µM.

Tested on: HOP-92 NSCLC
Assay: DTP human tumour cell line panel, 48 h

`COC(=O)/C(=N\NC(=O)c1ccccc1O)C(C#N)c1ccccc1` (stereo unspecified) and `O=S1(=O)OCCOS(=O)(=O)C1(Br)Cc1ccccc1` cannot be ordered by TGI: greater than 50 µM for the first, greater than 100 µM for the second.

`C=CCSc1ncnc2c1ncn2C1OC(CO)C(O)C1O` (stereo unspecified) and `CC1CCC2(OCCO2)[C@]2(C)CC(O)C(=O)C=C12` (stereo partly specified) cannot be ordered by TGI: greater than 100 µM for the first, greater than 100 µM for the second.

Tested on: TK-10 renal
Assay: DTP human tumour cell line panel, 48 h

`COC(=O)/C(=N\NC(=O)c1ccccc1O)C(C#N)c1ccccc1` (stereo unspecified) and `O=S1(=O)OCCOS(=O)(=O)C1(Br)Cc1ccccc1` cannot be ordered by TGI: greater than 50 µM for the first, greater than 100 µM for the second.

`C=CCSc1ncnc2c1ncn2C1OC(CO)C(O)C1O` (stereo unspecified) and `CCCCCCCCCCCCCC(=O)OC1C(O)C(CO)OC(OC)C1NC(=O)N(CCCl)N=O` (stereo unspecified) cannot be ordered by TGI: greater than 100 µM for the first, greater than 100 µM for the second.

`CC1CCC2(OCCO2)[C@]2(C)CC(O)C(=O)C=C12` (stereo partly specified) showed a TGI greater than 100 µM.

Tested on: SK-MEL-28 melanoma
Assay: DTP human tumour cell line panel, 48 h

`COC(=O)/C(=N\NC(=O)c1ccccc1O)C(C#N)c1ccccc1` (stereo unspecified) and `O=S1(=O)OCCOS(=O)(=O)C1(Br)Cc1ccccc1` cannot be ordered by TGI: greater than 50 µM for the first, greater than 100 µM for the second.

`C=CCSc1ncnc2c1ncn2C1OC(CO)C(O)C1O` (stereo unspecified) and `CCCCCCCCCCCCCC(=O)OC1C(O)C(CO)OC(OC)C1NC(=O)N(CCCl)N=O` (stereo unspecified) cannot be ordered by TGI: greater than 100 µM for the first, greater than 100 µM for the second.

With `CC1CCC2(OCCO2)[C@]2(C)CC(O)C(=O)C=C12` (stereo partly specified) the TGI was greater than 100 µM.

Tested on: HOP-18 NSCLC
Assay: DTP human tumour cell line panel, 48 h

`C=CCSc1ncnc2c1ncn2C1OC(CO)C(O)C1O` (stereo unspecified) and `CCCCCCCCCCCCCC(=O)OC1C(O)C(CO)OC(OC)C1NC(=O)N(CCCl)N=O` (stereo unspecified) cannot be ordered by TGI: greater than 100 µM for the first, greater than 100 µM for the second.

Compound `CC1CCC2(OCCO2)[C@]2(C)CC(O)C(=O)C=C12` (stereo partly specified) has a TGI greater than 100 µM.

Tested on: UACC-62 melanoma
Assay: DTP human tumour cell line panel, 48 h

`COC(=O)/C(=N\NC(=O)c1ccccc1O)C(C#N)c1ccccc1` (stereo unspecified) and `O=S1(=O)OCCOS(=O)(=O)C1(Br)Cc1ccccc1` cannot be ordered by TGI: greater than 32.8 µM for the first, greater than 100 µM for the second.

`C=CCSc1ncnc2c1ncn2C1OC(CO)C(O)C1O` (stereo unspecified) and `CCCCCCCCCCCCCC(=O)OC1C(O)C(CO)OC(OC)C1NC(=O)N(CCCl)N=O` (stereo unspecified) cannot be ordered by TGI: greater than 100 µM for the first, greater than 100 µM for the second.

Tested on: IGROV1 ovarian
Assay: DTP human tumour cell line panel, 48 h

`COC(=O)/C(=N\NC(=O)c1ccccc1O)C(C#N)c1ccccc1` (stereo unspecified) and `O=S1(=O)OCCOS(=O)(=O)C1(Br)Cc1ccccc1` cannot be ordered by TGI: greater than 50 µM for the first, greater than 100 µM for the second.

`C=CCSc1ncnc2c1ncn2C1OC(CO)C(O)C1O` (stereo unspecified) and `CCCCCCCCCCCCCC(=O)OC1C(O)C(CO)OC(OC)C1NC(=O)N(CCCl)N=O` (stereo unspecified) cannot be ordered by TGI: greater than 100 µM for the first, greater than 100 µM for the second.

In the case of `CC1CCC2(OCCO2)[C@]2(C)CC(O)C(=O)C=C12` (stereo partly specified), the TGI is reported as greater than 100 µM.

Tested on: RXF 393 renal
Assay: DTP human tumour cell line panel, 48 h

First: COC(=O)/C(=N\NC(=O)c1ccccc1O)C(C#N)c1ccccc1 (stereo unspecified)
Second: O=S1(=O)OCCOS(=O)(=O)C1(Br)Cc1ccccc1
The TGI of the first is lower: 34.1 µM for the first, greater than 100 µM for the second.

`CC1CCC2(OCCO2)[C@]2(C)CC(O)C(=O)C=C12` (stereo partly specified) and `CCCCCCCCCCCCCC(=O)OC1C(O)C(CO)OC(OC)C1NC(=O)N(CCCl)N=O` (stereo unspecified) cannot be ordered by TGI: greater than 100 µM for the first, greater than 100 µM for the second.

Tested on: SN12C renal
Assay: DTP human tumour cell line panel, 48 h

`COC(=O)/C(=N\NC(=O)c1ccccc1O)C(C#N)c1ccccc1` (stereo unspecified) and `O=S1(=O)OCCOS(=O)(=O)C1(Br)Cc1ccccc1` cannot be ordered by TGI: greater than 50 µM for the first, greater than 100 µM for the second.

`C=CCSc1ncnc2c1ncn2C1OC(CO)C(O)C1O` (stereo unspecified) and `CC1CCC2(OCCO2)[C@]2(C)CC(O)C(=O)C=C12` (stereo partly specified) cannot be ordered by TGI: greater than 100 µM for the first, greater than 100 µM for the second.

Reference: PubChem BioAssay (NCI)
